# From patent US20150175666A1, “PEPTIDES DERIVED FROM HIV GP41 FOR TREATING T-CELL MEDIATED PATHOLOGIES” (Yeda Research and Development Co. Ltd., priority 2012, published 2015)
# Legend:
# [1] = In vivo toxicity in naïve mice; set-up: species or system C57BL mice; settings: 50 mg/kg i.v., n=3
# Experimental: First, the toxicity of the peptide was investigated by injecting naïve C57BL mice i.v. with 50 mg/kg of the peptides. […] Then, C57Bl/6J mice that were induced to develop clinical EAE by immunization with MOG35-55/CFA were given a dose of the peptide that was 100-fold less than the one examined in the toxicity assay, i.e. 10 μg per mouse (0.5 mg/kg), or PBS as a control. On day 10 post immunization, prior to the onset of clinical signs of EAE, the lymph node cells (LNCs) from each treatment group were cultured for 72 h in microtiter wells in triplicate (0.5×10^6/well) in the absence or presence of MOG35-55 (2.5 or 5 μg/ml; SEQ ID NO: 15). [H3] Thymidine was added for the last 18 h. The LNCs were analyzed ex vivo for their recall proliferative response to the immunizing MOG35-55 peptide and for secretion of pro-inflammatory cytokines.
# [2] = tested on: T cells (Jurkat T cells, MOG35-55-specific T cells); assay: XTT cytotoxicity assay; assay type: cell-based, human and murine; settings: up to maximal concentration examined (20 μM, FIG. 3G)
# Experimental: Aliquots of 2.5×10^4 of the cells (from Jurkat E6-1, T-cell line) were distributed onto a 96-well plate (Falcon) in the presence of various peptide concentrations and incubated for 24 h. Wells in the last two columns served as blank (medium only), and 100% survival controls (cells and medium only), respectively. After incubation, the XTT reaction solution benzene sulfonic acid hydrate and N-methyl dibenzopyrazine methyl sulfate, mixed in a proportion of 50:1, was added for 2 more hr. Optical density was read at a 450-nm wavelength in an enzyme-linked immunoabsorbent assay plate reader. LC50 (the concentration at which 50% of the cells die) was determined relative to the control, 2.5×10^4 cells in medium. All assays were performed in duplicate.
# The viability of the cells was analyzed by an XTT cytotoxicity assay. The peptide was not toxic to T cells up to 20-fold more than the IC50 of the peptide, the maximal concentration examined (FIG. 3G).
# [3] = tested on: human red blood cells (RBCs); assay: Hemolysis of human red blood cells; assay type: cell-based; settings: up to 100-fold IC50, maximal concentration examined (100 μM, 1 hr)
# Experimental: Fresh human red blood cells (RBCs) were rinsed two times with PBS, followed by centrifugation for 7 min at 2000 rpm and resuspension in PBS. Peptides, at various concentrations, were dissolved in PBS and added to 50 μl of the stock hemolysis of human red blood cell (hRBC) solution in PBS for a final volume of 100 μl (final erythrocyte concentration, 4% (v/v)). The resulting suspension was incubated with agitation for 60 min at 37° C. The samples were then centrifuged at 2000 rpm for 7 min. The release of hemoglobin was monitored by measuring the absorbance of the supernatant at 540 nm. Controls for zero hemolysis (blank) and 100% hemolysis consisted of hRBCs suspended in PBS and PBS with 1% Triton, respectively.
# Hemolysis of red blood cells (RBCs) is often used to detect membranolytic activity of peptides. Hemolytic activity was measured by the release of hemoglobin into the media (OD 540 nm). Triton (1% v/v) served as a control for a hemolytic agent. Importantly, the peptide was not hemolytic up to 100-fold more than the IC50 of the peptide, the maximal concentration examined (FIG. 3H).
smiles,measurement,setting,value
"CC[C@H](C)[C@H](NC(=O)[C@H](CCC(N)=O)NC(=O)[C@H](CCC(=O)O)NC(=O)[C@H](CC(C)C)NC(=O)[C@H](CO)NC(=O)[C@H](CCCCN)NC(=O)[C@H](CC(N)=O)NC(=O)[C@@H](N)CO)C(=O)N[C@@H](Cc1c[nH]c2ccccc12)C(=O)N[C@@H](CC(N)=O)C(=O)N[C@@H](Cc1c[nH]cn1)C(=O)N[C@H](C(=O)N[C@H](C(=O)N[C@@H](Cc1c[nH]c2ccccc12)C(=O)N[C@@H](CCSC)C(=O)N[C@@H](CCC(=O)O)C(=O)N[C@@H](Cc1c[nH]c2ccccc12)C(=O)N[C@@H](CC(=O)O)C(N)=O)[C@@H](C)O)[C@@H](C)O [PEP 6, SNKSLEQIWNHTTWMEWD]",toxic effect in mice,[1],No toxic effect
same,toxicity to T cells (viability),[2],not toxic
same,hemolytic activity,[3],not hemolytic
